Measurements taken from ChEMBL document CHEMBL3244329, “Nicotinamide adenine dinucleotide phosphate-decanaldehyde adduct as an inhibitor of beef brain NADP-linked aldehyde reductase” (J Med Chem, 1979).

molecular target: Aldo-keto reductase family 1 member A1 (Bos taurus, UniProt Q3ZCJ2); test: Inhibition of beef brain NADP-dependent aldehyde reductase using p-nitrobenzaldehyde by competitive inhibition assay
Sequence (Q3ZCJ2 2-325 limits assumed): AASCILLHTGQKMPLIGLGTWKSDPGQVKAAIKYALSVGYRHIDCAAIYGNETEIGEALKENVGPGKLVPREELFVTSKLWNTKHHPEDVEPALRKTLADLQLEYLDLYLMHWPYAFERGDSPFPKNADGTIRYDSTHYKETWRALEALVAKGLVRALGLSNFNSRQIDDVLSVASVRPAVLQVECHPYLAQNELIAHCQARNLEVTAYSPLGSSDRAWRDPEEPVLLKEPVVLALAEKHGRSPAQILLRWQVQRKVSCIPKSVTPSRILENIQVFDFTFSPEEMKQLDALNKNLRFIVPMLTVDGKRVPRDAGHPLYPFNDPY

Q: With CCCCCCCCC1C(O)NC(=O)C2=CN([C@@H]3O[C@H](COP(=O)(O)O[C@H]4[C@@H](O)[C@H](n5cnc6c(N)ncnc65)O[C@@H]4COP(=O)(O)OP(=O)(O)O)[C@@H](O)[C@H]3O)C=C[C@H]21 (some centres undefined) as the molecule, how does the Ki read?
A: 2.3 µM

Q: Nc1ncnc2c1ncn2[C@@H]1O[C@H](COP(=O)(O)OP(=O)(O)O)[C@@H](OP(=O)(O)OC[C@H]2O[C@@H](N3C=C[C@@H]4C(=C3)C(=O)NC(O)C4Cc3ccccc3)[C@H](O)[C@@H]2O)[C@H]1O (some centres undefined) was tested. Which Ki did it give?
A: 7 µM

Q: Nc1ncnc2c1ncn2[C@@H]1O[C@H](COP(=O)(O)OP(=O)(O)O)[C@@H](OP(=O)(O)OC[C@H]2O[C@@H](N3C=C[C@@H]4C(=C3)C(=O)NC(O)C4c3ccccc3)[C@H](O)[C@@H]2O)[C@H]1O (some centres undefined) was tested. Which Ki did it give?
A: 5.1 µM

Q: For CCC1C(O)NC(=O)C2=CN([C@@H]3O[C@H](COP(=O)(O)O[C@H]4[C@@H](O)[C@H](n5cnc6c(N)ncnc65)O[C@@H]4COP(=O)(O)OP(=O)(O)O)[C@@H](O)[C@H]3O)C=C[C@H]21 (some centres undefined), which Ki is on record?
A: 13 µM
